# Experimental data: paper PMC12615753, “Glutathione as a taste modulator: molecular mechanisms of interaction with umami and sweet taste receptors” (Food Chemistry: Molecular Sciences, 2025)
# Target: T1, hTAS1R1 S172A/rTAS1R3 (UniProt Q7RTX1+Q923K1, S172A)
# T1 construct: UniProtKB number Q7RTX1–1); The cDNA coding region of rTAS1R3 was synthesized with optimized-codon usage for human expression; expressed in transfected cells; host or cells: HEK293T/17
# T1 sequence (Q7RTX1 21-841 S172A): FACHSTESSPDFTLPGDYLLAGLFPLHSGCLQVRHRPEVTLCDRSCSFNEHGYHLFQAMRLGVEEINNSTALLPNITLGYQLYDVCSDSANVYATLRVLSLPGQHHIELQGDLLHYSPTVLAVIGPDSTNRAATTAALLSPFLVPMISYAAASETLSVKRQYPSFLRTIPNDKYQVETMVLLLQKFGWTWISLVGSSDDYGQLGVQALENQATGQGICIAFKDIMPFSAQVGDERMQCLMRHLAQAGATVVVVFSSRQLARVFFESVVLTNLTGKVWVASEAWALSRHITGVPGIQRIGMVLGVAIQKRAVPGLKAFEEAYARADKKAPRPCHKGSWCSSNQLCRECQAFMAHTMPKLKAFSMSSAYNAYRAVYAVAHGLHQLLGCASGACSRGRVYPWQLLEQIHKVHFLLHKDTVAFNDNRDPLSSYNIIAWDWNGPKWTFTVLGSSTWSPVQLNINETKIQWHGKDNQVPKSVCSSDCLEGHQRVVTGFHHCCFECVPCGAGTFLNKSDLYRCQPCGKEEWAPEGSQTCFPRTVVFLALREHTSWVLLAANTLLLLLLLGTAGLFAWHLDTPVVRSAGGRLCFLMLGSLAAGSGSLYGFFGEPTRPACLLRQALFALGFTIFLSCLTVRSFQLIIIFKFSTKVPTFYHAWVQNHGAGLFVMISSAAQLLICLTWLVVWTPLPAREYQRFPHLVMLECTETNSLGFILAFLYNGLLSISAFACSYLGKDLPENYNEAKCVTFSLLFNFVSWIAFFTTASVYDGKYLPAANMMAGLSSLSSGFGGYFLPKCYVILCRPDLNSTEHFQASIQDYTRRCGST
# T1 sequence (Q923K1 21-858): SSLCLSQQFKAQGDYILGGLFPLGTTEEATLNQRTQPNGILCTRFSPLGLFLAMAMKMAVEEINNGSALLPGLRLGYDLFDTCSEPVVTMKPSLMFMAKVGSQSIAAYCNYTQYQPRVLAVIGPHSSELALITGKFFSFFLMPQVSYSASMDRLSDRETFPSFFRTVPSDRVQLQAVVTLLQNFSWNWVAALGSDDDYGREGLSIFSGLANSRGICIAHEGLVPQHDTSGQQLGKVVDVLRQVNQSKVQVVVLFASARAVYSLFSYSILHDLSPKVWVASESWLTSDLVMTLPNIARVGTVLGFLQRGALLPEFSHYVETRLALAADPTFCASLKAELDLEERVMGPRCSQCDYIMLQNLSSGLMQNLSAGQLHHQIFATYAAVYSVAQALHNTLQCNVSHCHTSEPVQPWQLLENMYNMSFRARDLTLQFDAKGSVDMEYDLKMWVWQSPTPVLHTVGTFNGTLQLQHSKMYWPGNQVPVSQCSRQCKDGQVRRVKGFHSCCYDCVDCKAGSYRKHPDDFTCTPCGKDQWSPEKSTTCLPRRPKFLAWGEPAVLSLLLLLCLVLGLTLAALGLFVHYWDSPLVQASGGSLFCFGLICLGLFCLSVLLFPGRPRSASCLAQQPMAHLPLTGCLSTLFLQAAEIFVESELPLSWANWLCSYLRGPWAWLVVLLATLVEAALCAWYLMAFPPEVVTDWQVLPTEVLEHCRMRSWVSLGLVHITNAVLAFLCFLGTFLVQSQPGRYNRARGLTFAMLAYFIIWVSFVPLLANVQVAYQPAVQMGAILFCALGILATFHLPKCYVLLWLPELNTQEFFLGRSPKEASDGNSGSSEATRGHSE
# Assay: Calcium assay, hTAS1R1 mutant co-expressed with rTAS1R3
# Format: cell-based, human, rat
# Details: for response to the agonist alone, vs WT: S172A
compound,measurement,value
"CCCC(CCC)NC(=O)c1ccc2c(c1)OCO2 [S807, N-(heptan-4-yl)benzo[d][1,3]dioxole-5-carboxamide, reference compound]","response to the agonist alone, vs WT",strongly affected
"N[C@@H](CCC(=O)O)C(=O)O [L-Glu, L-glutamic acid, reference compound]","response to the agonist alone, vs WT",completely suppressed
"N[C@@H](CCC(=O)N[C@@H](CS)C(=O)NCC(=O)O)C(=O)O [GSH, γ-L-glutamyl-L-cysteinyl-glycine]",EC50,> 30 mM
same,"response to the agonist alone, vs WT",fully abolished
